Assay [1] concerns dextran sodium sulfate (DSS) model of colitis. Kind of assay: DSS model of established colitis in mice, remedial treatment. Format: in vivo. On the procedure: FIGS. 12A-C are the result of experiments described in Example 5. […] FIG. 12C provide graphical data for weight loss, bleeding score, and stool consistency (i.e., higher score reflects higher levels of diarrhea), wherein the mice were first subjected to DSS irritation, then subset populations were remedially treated after 8 days with the compound having Structure B7.
In a first test, the effects of exposure to dextran sodium sulfate (DSS) were evaluated, which results in a partially CD4-dependent inflammatory model of colitis, in wildtype (WT) versus TIP60dn C57BL/6 mice (8 mice/group).
Data were also generated using the compound of Structure B7 in the DSS model, in an experiment designed to test the ability of TIP60 inhibitor therapy to reverse established colitis by waiting until mice had ˜15% weight loss. In marked contrast to use of carrier DMSO alone, TIP60 inhibitor therapy (2 mg/kg/d, i.p.) reversed weight loss (p<0.01), blood in the stool (p<0.01) and diarrhea (p<0.005) (see FIG. 12C) and maintained colon length (p<0.01).

For assay [2], the system named is Treg suppression of T cell proliferation. Kind of assay: Treg suppression assay in vitro (T cell proliferation, 3 days, CFSE dye, flow cytometry). The assay is classed as cell-based. The conditions noted are these: for enhancement of suppression of Treg in vitro: 500x dilution of 10 mM solution (20 micromolar), FIG. 10; for percentage of proliferated cells: Treg:Teff=1:1. The source says:
FIGS. 8A-D are flow cytometry dataplots showing the enhancement of TIP60 inhibitor B7 suppression of Treg in vitro. Individual peaks reflect number of cells divisions under the standard test conditions (3 days), where the cell populations are dyed with CFSE (carboxyfluorescen diacetate, succimidyl ester). FIG. 8A are the data for DMSO without B7; FIG. 8B are the data for B7-1000×; FIG. 8C are the data for B7-4000×; and FIG. 8D are the data for B7-8000. In each case, the 1000×/4000×/8000× refers to the dilution factor of the B7, from an original 10 mM solution of B7; e.g, 1000× represents a solution diluted by a factor of 1000, so as to result in a 10 micromolar solution. The numbers in the upper left corner of the plot (e.g., 88, 81, 74, 65, and 37 of FIG. 8A) refer to the measured percentage of proliferated cells.
FIGS. 10A-E are flow cytometry dataplots showing the enhancement of TIP60 inhibitors B7 suppression of Treg in vitro. FIG. 10A are the data for DMSO without any B7-type inhibitor; FIG. 10B are the data for B7-500×; FIG. 10C are the data for B7A-500×; FIG. 10D are the data for B7B-500; and FIG. 10E are the data for B7C-500×. In each case, the 500× refers to the dilution factor of the B7/B7A/B7B/B7C, from an original 10 mM solution of the compound; e.g, 500× represents a solution diluted by a factor of 500, so as to result in a 20 micromolar solution.
Several exemplary compounds of the present invention were screened at 10 μg/ml in vitro, at varying Treg:T cell ratios, using standard cell proliferation techniques (3 days, using CSFE dyes). Such techniques are well understood by those skilled in the art. For example, see Akimova T, Ge G, Golovina T, Mikheeva T, Wang L, Riley J L, Hancock W W., “Histone/protein deacetylase inhibitors increase suppressive functions of human FOXP3+ Tregs,” Clin Immunol. 2010 September; 136(3):348-63; Tao R, Hancock W W., Resistance of FOXP3+ regulatory T cells to Nur77-induced apoptosis promotes allograft survival,” PLoS One. 2008 May 28; 3(5):e2321; Tao R, Wang L, Murphy K M, Fraser C C, Hancock W W., “Regulatory T cell expression of herpesvirus entry mediator suppresses the function of B and T lymphocyte attenuator-positive effector T cells.,” J. Immunol. 2008 May 15; 180(10):6649-55; and Tao R, de Zoeten E F, Ozkaynak E, Chen C, Wang L, Porrett P M, Li B, Turka L A, Olson E N, Greene M I, Wells A D, Hancock W W., “Deacetylase inhibition promotes the generation and function of regulatory T cells,” Nat. Med. 2007 November; 13(11):1299-307 for the protocols used herein. Each of these references is incorporated by reference herein, at least for this purpose.
T cell proliferation was unimpaired in the absence of Treg cells (see left panels in FIG. 8A-D), but was increasingly impaired at increasing Treg concentration (for example, in FIG. 8A, increasing Treg:Tcell ratio from 0:1 to 1:1 reduced proliferation from 88% to 37% under otherwise identical conditions). […] Efficacy was also seen at 1 μg/ml for some compounds.

Assay [3] deals with FOXP3. Kind of assay: FOXP3 bound on chromatin in SZ-4 T cells (Western blot). The assay is classed as cell-based. The conditions noted are these: FIG. 9.
The target in assay [4] is T1, TIP60 (Homo sapiens, UniProt Q92993).
T1 construct: expressed in transfected cells; host or cells: 293T cells
Nature of the assay: TIP60 activity by acetylation of TIP60 or its substrate FOXP3 in transfected 293T cells (Ac-K immunoprecipitation, Western blot). The conditions noted are these: 4 hours. Format: cell-based. On the procedure:
FIG. 11 illustrate the effect of B7G on TIP60. TIP60 activity was assessed by examining acetylation of TIP60 or its substrate FOXP3. Both TIP60 and FOXP3 were overexpressed in 293T cells. Acetylated proteins were first immunoprecipitated with the acetyl-lysine specific antibody Ac-K and then blotted with HRP conjugated antibodies to expression tags (HA for FOXP3 or FLAG for TIP60).
TIP60 is known to have acetyl transferase activity to acetylate itself (auto-acetylation) or substrates including FOXP3. To examine activity of B7G on TIP60, 293T cells were transfected with Flag-tagged TIP60 and HA-tagged FOXP3. 24 hours after transfection, cells were treated with various concentrations of B7G for 4 hours before cell lysates were collected. Acetylated proteins were precipitated by anti-acetyl lysine antibody Ac-K. FOXP3 and TIP60 in the lysate or precipitated by Ac-K antibody were identified by anti-HA-HRP and anti-FLAG-HRP respectively.

Where [5] appears, read: 2 mg/kg/d i.p., vs carrier DMSO, p<0.01.

Each structure is given as a SMILES string.

T1 sequence (Q92993 whole entry, species assumed): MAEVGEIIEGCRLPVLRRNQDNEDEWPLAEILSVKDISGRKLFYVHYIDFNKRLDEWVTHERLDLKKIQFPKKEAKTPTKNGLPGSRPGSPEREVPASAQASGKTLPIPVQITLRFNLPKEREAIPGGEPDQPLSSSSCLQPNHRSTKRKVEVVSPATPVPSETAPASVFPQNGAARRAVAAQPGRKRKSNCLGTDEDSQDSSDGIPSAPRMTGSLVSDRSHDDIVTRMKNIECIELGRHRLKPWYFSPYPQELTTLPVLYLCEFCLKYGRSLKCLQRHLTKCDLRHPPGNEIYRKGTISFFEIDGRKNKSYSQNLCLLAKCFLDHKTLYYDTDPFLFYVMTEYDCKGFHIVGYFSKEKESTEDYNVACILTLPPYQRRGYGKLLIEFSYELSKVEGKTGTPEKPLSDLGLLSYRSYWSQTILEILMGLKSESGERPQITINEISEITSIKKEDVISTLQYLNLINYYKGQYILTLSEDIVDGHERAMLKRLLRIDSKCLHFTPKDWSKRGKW

Take `Cc1ccc(NC(=O)C2CC(=O)N(CCc3ccc(Cl)cc3)C2)cc1` (stereo not drawn) [B7]: the weight loss entry in assay [1] (2 mg/kg/d i.p., started at ~15% weight loss, vs carrier DMSO, p<0.01) was “reversed”. Further, the diarrhea result in assay [1] (2 mg/kg/d i.p., vs carrier DMSO, p<0.005) is recorded as “reversed”. For the same molecule, in assay [1] (setting [5]), the “blood in the stool” value was “reversed”. In assay [1] (setting [5]), the colon length entry is “maintained”. In addition, in assay [1] (single animal, 3% DSS then B7), the “colon length relative to that of an unstressed control animal” value was “about 94%”. For the same molecule, in assay [1] (single remediated animal, 3% DSS then B7), the “spleen size relative to control animal” value was “comparable in size to that of the control”. Moreover, in assay [2], the “enhancement of suppression of Treg in vitro” value (from here on “enhancement … in vitro”) is reported as “enhancement”. Moreover, the “T cell proliferation in the absence of Treg cells” value in assay [2] (Treg:Tcell 0:1, left panels FIG. 8A-D) was “unimpaired”. For the same molecule, the “percentage of proliferated cells” value in assay [2] (FIG. 8B (B7-1000x dilution of 10 mM, 10 μM), highest B7 dosage) came to 25%; in assay [2] (FIG. 8C (B7-4000x dilution of 10 mM), middle B7 dosage) it was 30%; in assay [2] (FIG. 8D (B7-8000x dilution of 10 mM), lowest B7 dosage), 37%. The “Treg activity (decreasing Tcell proliferation)” value in assay [2] (dose dependent, varying Treg:T cell ratios) is on record as “enhanced the Treg activity”.

Take `COc1ccc(NC(=O)C2CC(=O)N(CCc3ccc(Cl)cc3)C2)cc1` (stereo not drawn) [B7B]: in assay [2], the “enhancement … in vitro” value was “enhancement”.

`O=C(Nc1ccc(Cl)cc1)C1CC(=O)N(CCc2ccc(Cl)cc2)C1` (stereo not drawn) [B7A]: the “enhancement … in vitro” value in assay [2] is given as “enhancement”.

Turning to `Cc1ccc2cc(NC(=O)C3CC(=O)N(CCc4ccc(Cl)cc4)C3)ccc2n1` (stereo not drawn) [B7C], the “enhancement … in vitro” value in assay [2] is “enhancement”. Moreover, the “FOXP3 bound on chromatin” value in assay [3] is “intervening with FOXP3 bound on chromatin”.

For `COc1ccc(CCN2CC(C(=O)Nc3ccc(F)c(Cl)c3)CC2=O)cc1OC` (stereo not drawn) [B7G], in assay [4] (32 μg/ml), the “Acetylated FOXP3 (HA-HRP blot of Ac-K precipitated proteins)” value is recorded as “reduced significantly” and the “Acetylated TIP60 (FLAG-HRP blot of Ac-K precipitated proteins)” value is listed as “reduced significantly”. Further, the TIP60 auto-acetylation result in assay [4] (lower concentration than 32 μg/ml) is on record as “slightly increase”. In assay [4] (various concentrations), the “FOXP3 expression level in total cell lysate” value is “not significantly affected” and the “TIP60 expression level in total cell lysate” value is “not significantly affected”.

The record behind these values is US9701631B2, “TIP60 inhibitors” (The Trustees Of The University Of Pennsylvania, priority 2010, dated 2017).
